Measured values reported in PubChem BioAssay (NCI).
Where “and” joins values, the source holds several entries; their conditions need not be identical. Identical values can stand only once.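 A five-concentration, 48-hour dose response in 96-well plates underlies each endpoint, interpolated linearly between surrounding concentrations. GI50: concentration for 50% inhibition of growth. TGI is the concentration that stops growth completely.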

Legend:
Assay in all cases: NCI-60 cell line screen, 48 h
786-0 renal = tested on: 786-0 renal
HT29 colon = tested on: HT29 colon
NCI/ADR-RES ovarian = tested on: NCI/ADR-RES ovarian
HS 578T breast = tested on: HS 578T breast
SK-MEL-2 melanoma = tested on: SK-MEL-2 melanoma
DU-145 prostate = tested on: DU-145 prostate
SF-539 CNS = tested on: SF-539 CNS
MDA-MB-435 = tested on: MDA-MB-435
SF-295 CNS = tested on: SF-295 CNS
RPMI-8226 leukemia = tested on: RPMI-8226 leukemia

Compound	TGI (786-0 renal) [µM]	TGI (HT29 colon)	TGI (NCI/ADR-RES ovarian)	TGI (HS 578T breast) [µM]	TGI (SK-MEL-2 melanoma)	TGI (DU-145 prostate)	TGI (SF-539 CNS)	TGI (MDA-MB-435)	TGI (SF-295 CNS) [µM]	TGI (RPMI-8226 leukemia)	GI50 (786-0 renal) [µM]	GI50 (HT29 colon) [µM]	GI50 (NCI/ADR-RES ovarian) [µM]	GI50 (HS 578T breast) [µM]	GI50 (SK-MEL-2 melanoma) [µM]	GI50 (DU-145 prostate) [µM]	GI50 (SF-539 CNS) [µM]	GI50 (MDA-MB-435) [µM]	GI50 (SF-295 CNS) [µM]	GI50 (RPMI-8226 leukemia) [µM]
COc1ccc(CCN2C(=O)C=CC2=O)cc1OC	8.15	13.7 µM	74.5 µM	99.6	14.8 µM	31 µM	31.3 µM	34 µM	33.5	3.18 µM	–	–	–	–	–	–	–	–	–	–
COc1cc(O)c2c(O)c3c(c4c2c1[C@]1(C4)C(C)=CCCC1(C)C)[C@H](O)[C@@]1(O)CC(=O)C(C(N)=O)=C(O)[C@@]1(O)C3=O	1.62	1.08 µM	1.5 µM	2.25	0.695 µM	2.43 µM	0.965 µM	1.2 µM	1.07	1.18 µM	–	–	–	–	–	–	–	–	–	–
O=c1c2cccc(Cl)c2sc2c(NCCCNCCO)nc3ccccc3c12	3.52	3.37 µM	12.1 µM	14.8	26.3 µM	4.85 µM	3.32 µM	3.55 µM	20.2	5.45 µM	1.69	1.68	2.98	2.95	10.9	1.98	1.67	1.82	6.29	2.1
N#C/C(=C\c1ccc(-c2ccc(Cl)cc2)o1)C(=O)Nc1ncc(Cc2ccc(Cl)cc2)s1	3.47	> 100 µM	6.31 µM	7.8	12.9 µM	13.5 µM	3.84 µM	> 100 µM	8.73	> 100 µM	1.77	3.42	1.87	1.59	3.26	2.53	1.66	2.65	2.84	4.45
Cn1c2ccccc2c(=S)c2ccccc21	> 100	> 100 µM	> 100 µM	> 100	> 100 µM	> 100 µM	> 100 µM	> 100 µM	> 100	> 100 µM	–	–	–	–	–	–	–	–	–	–
Cn1cc(-c2nc(-c3c[nH]c4ncccc34)cs2)c2cc(F)ccc21	7.64	4.53 µM	7.66 µM	> 100	11.1 µM	15.2 µM	15.3 µM	4.88 µM	6.93	48.3 µM	2.82	2.1	2.47	4.23	3.81	3.97	3.8	1.12	2.18	2.81
Cc1nc(Cl)nc(Cl)c1C	> 100	> 100 µM	> 100 µM	> 100	> 100 µM	–	> 100 µM	> 100 µM	> 100	> 100 µM	–	–	–	–	–	–	–	–	–	–
CC1CC2(C)ON=C(c3ccccc3)N2c2ccccc2S1 (centres undefined)	–	80 µM	46.6 µM	–	–	–	51.6 µM	93.3 µM	79.1	69.2 µM	34.4	27.9	17.6	46.2	–	54.5	22.4	26	28.9	20.4
C/C=C(\C)C(=O)N[C@H]1CC[C@]2(C)C3CC[C@@]4(C)C(CC[C@@H]4C(C)N(C)C)C3CCC2[C@H]1OC(C)=O (some centres undefined)	2.95	1.34 µM	12 µM	4.7	4.48 µM	10.9 µM	2.53 µM	2.84 µM	4.05	4.68 µM	1.54	0.362	3.11	1.75	2.29	2.85	1.16	1.13	1.88	1.62
COc1cc2nc3sc(C(=O)Nc4ccc(C(=O)OC(C)C)cc4)c(C(=O)Nc4ccc(Cl)cc4C)n3c(=O)c2cc1OC	28	> 100 µM	> 100 µM	7.7	> 100 µM	11.4 µM	80.8 µM	> 100 µM	29	78.6 µM	5.17	3.18	12.4	1.6	> 100	1.25	23.2	9.11	11.2	16
Cc1nn(-c2nc3ccccc3s2)c(C)c1Oc1ccccc1O	27.7	20.3 µM	23.3 µM	25.2	–	20.1 µM	20.1 µM	21.3 µM	17.2	34.8 µM	14.6	4.95	3.6	10.3	–	7.17	2.52	9.36	3.2	8.13
Cc1cc2c(cc1Cl)SC1=CC(=O)N(c3ccccc3)C1=NS2(=O)=O	71.6	67.8 µM	> 100 µM	–	> 100 µM	> 100 µM	–	> 100 µM	> 100	36.5 µM	27.5	21.5	37.8	–	51.4	59.4	–	> 100	> 100	14.4
COc1ccc2nc(-c3cc(-c4cc(OC)c(OC)c(OC)c4)n[nH]3)[nH]c2c1	12.8	16.2 µM	> 100 µM	23.2	–	8.28 µM	9.71 µM	3.11 µM	5.24	2.53 µM	2.92	2.76	2.91	2.89	–	2.29	2.42	1.49	1.62	0.643
CC1=C[C@H]2c3c(c(O)c(O)c4oc5c(C)cccc5c(=O)c34)[C@H](c3cc(O)c(O)c4oc5c(C)cccc5c(=O)c34)[C@H]2C(C)(C)C1	9.29	8.92 µM	7.15 µM	9.19	5.1 µM	14.9 µM	3.65 µM	3.87 µM	2.84	–	2.85	2.12	2.44	1.93	2.05	3.13	1.67	1.63	1	–
O=[N+]([O-])c1ccc(Br)c([N+](=O)[O-])c1	10.9	–	5.69 µM	4.97	10.3 µM	3.12 µM	5.01 µM	3.58 µM	5.96	5.51 µM	3.35	–	2.39	1.98	3.23	1.72	2.06	1.85	2.38	2.36
CC(C)=CCC[C@H](C)[C@@H]1CC[C@]2(C)C3CC[C@]4(OC4(C)C)C(CCCO)[C@]3(C)CC[C@@]12C (some centres undefined)	48.5	> 100 µM	59.2 µM	58.5	–	> 100 µM	50.1 µM	48.8 µM	63.3	> 100 µM	22.4	34	23.5	24.4	–	32.9	23.6	22.6	27.9	33.6
CC1=C(C(=O)Nc2ccc(F)c(Cl)c2)C(c2ccccc2Cl)NC(=S)N1 (centres undefined)	> 50	–	49.1 µM	> 50	> 50 µM	> 50 µM	> 50 µM	> 50 µM	> 50	> 50 µM	30	–	18	> 50	26.8	> 50	> 50	30.1	39.8	38.3
Oc1ccccc1-c1nn(CNc2cccc(Cl)c2)c(=S)o1	> 100	> 100 µM	40 µM	> 100	> 100 µM	–	> 100 µM	> 100 µM	> 100	38.5 µM	67.3	18.5	0.371	69.1	> 100	–	27.6	77.1	> 100	15.3
CC(C)(C)NC(C1=CC(C)(C)c2ccccc2C1=O)c1ccccc1 (centres undefined)	3.13	2.88 µM	6.29 µM	6.08	3.08 µM	3.24 µM	3.02 µM	5.4 µM	17.8	–	1.75	1.54	2.45	1.43	1.49	1.55	1.66	1.98	5.07	–
CC(=O)[CH-]C(=O)c1ccccc1.CC(=O)[CH-]C(=O)c1ccccc1.CC[O-].CC[O-].[Zr+4]	> 100	> 100 µM	–	–	> 100 µM	–	> 100 µM	–	> 100	> 100 µM	> 100	> 100	–	–	> 100	–	> 100	–	> 100	> 100
CCCCCCCCCCCCCC(=O)O[C@H]1CC[C@H](NC(=O)[C@H](OC)[C@H](O)[C@@H](O)[C@H](O)/C=C/C(C)C)C(=O)NC1	0.928	7.29 µM and 12.7 µM	51.2 µM and 26.3 µM	–	51.2 µM and 9.49 µM	34.6 µM and > 100 µM	22 µM and 17.6 µM	51.2 µM and 18.2 µM	–	11.6 µM and 10.2 µM	–	–	3.58	0.0112	–	0.00512	–	0.00789	–	–
CC[C@H](C)[C@H]1NC(=O)[C@@H](N[C@](C)(O)[C@@H](N)CC(C)C)[C@@H](C)OC(=O)[C@H](Cc2ccc(OC)cc2)N(C)C(=O)[C@@H]2CCCN2C(=O)[C@H](CC(C)C)NC(=O)[C@@H](C)C(=O)[C@H](C(C)C)OC(=O)C[C@@H]1O	2.94	0.702 µM	46.5 µM	0.467	0.0499 µM	0.509 µM	0.185 µM	0.397 µM	–	0.177 µM	0.0225	0.00695	2.18	0.0164	0.00972	0.00903	0.0165	0.0151	–	0.0347
COc1ccc(-c2[nH]c3ccccc3c2C=C(C#N)C#N)cc1	> 32.1	> 100 µM	4.7 µM	–	> 100 µM	> 21.7 µM	0.795 µM	0.469 µM	6.3	–	0.715	0.371	0.335	0.201	–	0.484	0.262	0.13	0.331	–
Cc1c(Cl)ccc2c1NC(=O)C2(O)C(C(=O)c1ccccc1)c1ccccc1 (centres undefined)	> 100	> 100 µM	–	–	> 100 µM	–	> 100 µM	–	92.6	69 µM	–	–	–	–	–	–	–	–	–	–
O=S1c2ccccc2N=C(c2ccc3ccccc3c2)CC1C1=CC=CCC1 (centres undefined)	29.8	31.4 µM	–	–	40.5 µM	–	45.3 µM	–	39.6	36.9 µM	–	–	–	–	–	–	–	–	–	–
COc1cc2nc(-c3cnc(N(C)C)nc3)nc(NC3CCN(Cc4ccccc4)CC3)c2cc1OC	3.81	2.54 µM	–	3.99	3.45 µM	3.05 µM	3.25 µM	2.81 µM	2.97	3.67 µM	1.8	1.08	–	1.71	1.8	1.57	1.72	1.38	1.54	1.22
COc1cc(/C=C2/C(=O)N(C(=O)OC(C)C)C(Cc3cc(OC)c(OC)c(C)c3OC)C(=O)N2Cc2ccccc2)c(OC)c(C)c1OC (centres undefined)	> 100	> 100 µM	–	–	> 100 µM	–	> 100 µM	–	> 100	> 100 µM	–	–	–	–	–	–	–	–	–	–
[O-]c1c2c(nn1-c1ccccc1)c1ccccc1c[n+]2Cc1ccccc1	> 100	> 100 µM	–	–	> 100 µM	–	> 100 µM	–	> 100	> 100 µM	–	–	–	–	–	–	–	–	–	–
CC(=O)N1c2ccccc2C23CCN(C)CC4C(C)OCC(C4CC2=O)C13 (centres undefined)	> 100	> 100 µM	> 100 µM	> 100	> 100 µM	> 100 µM	> 100 µM	> 100 µM	> 100	–	–	–	–	–	–	–	–	–	–	–
O=S(=O)(/C=C/c1ccc(Cl)cc1Cl)Cc1ccccc1CS(=O)(=O)/C=C/c1ccc(Cl)cc1Cl	> 100	> 100 µM	–	–	> 100 µM	–	> 100 µM	–	> 100	> 100 µM	–	–	–	–	–	–	–	–	–	–
